Test results reported in patent US11306306B1, “Selective degradation of proteins” (SyntheX, Inc., priority 2019, dated 2022).

What was measured:
[1] = system: COI1b bridged to plant protein (AXR) fused to a TetR DBD and an AD; assay: Positive readout screen for bridging agents, death agent, 96 well plate growth (OD600), E3 ligase COI1b; assay type: cell-based, S. cerevisiae; conditions: duplicate wells, 30° C., final timepoint 84 hrs
Protocol: In yet another example, cells expressing a heterologous E3 ligase, in this case COI1b, were assayed for survival to discover bridging agents that can bridge COI1b to the bait and lead to degradation, thereby enabling cell growth (as shown in FIG. 11A). S. cerevisiae cells were modified to minimize drug efflux by deletion of drug efflux pumps and transcription factors encoding for their expression as previously described (Chinen, 2011). The target used was a plant protein (AXR) that is ubiquitinated and degraded in response to Jasmonate-isoleucine fused to a TetR DBD and an AD. Cells containing the E3 ligases and the death agents were mated to cells containing the target. The mated cells were then aliquoted into a 96 well plate at a starting OD600=0.05. Various compounds were tested in duplicate wells at a concentration gradient down from 100 uM. […] Plates were incubated at 30° C. with shaking and continuously monitored for growth using OD600 in a Cytation 1 instrument.

[2] = system: aggressive adherent cancer cell lines (e.g. HeLa, A431, T47D, MCF7, MDA-MB-231); conditions: several aggressive adherent cancer cell lines (e.g. HeLa, A431, T47D, MCF7, MDA-MB-231); cited from earlier work
[3] = system: TIR1 bridged to plant protein (AXR) fused to a TetR DBD and an AD; assay: Positive readout high throughput screen for bridging agents, death agent, 96 well plate growth (OD600), E3 ligase TIR1; assay type: cell-based, Saccharomyces cerevisiae; conditions: 10 uM, quadruplicate wells, 30° C., final timepoint 48 hrs
Protocol: In another example, cells expressing a heterologous E3 ligase, in this case TIR1, were assayed for survival to discover bridging agents that can bridge TIR1 to the bait and lead to degradation, thereby enabling cell growth (schematic shown in FIG. 10A). The target was a plant protein (AXR) that is ubiquitinated and degraded in response to Indol Acetic Acid fused to a TetR DBD and an AD. Cells containing the E3 ligases and the death agent were mated to cells containing the target. The mated cells were then aliquoted into a 96 well plate at a starting OD600=0.05. In this example, various compounds were used in quadruplicate wells at a concentration of 10 uM, and plated cells starting at OD600=0.05 (with the border wells on each side kept as negative controls). Plates were incubated at 30° C. with shaking and continuously monitored for growth using OD600 in a Cytation 1 instrument.

Q: Which results are given for `CC[C@H]1C=C(C(=O)N[C@@]2(C(=O)O)C[C@@H]2CC)[C@H]2CCC(=O)[C@H]2C1` [coronatine]?
A: cell growth (OD600): bridging COI1b to the bait, leading to degradation ([1]; 50 uM (wells G8/9)): exhibited cell growth; cell growth (OD600): bridging COI1b to the bait, leading to degradation ([1]; 75 uM (wells F8/9)): exhibited cell growth; cell growth (OD600): bridging COI1b to the bait, leading to degradation ([1]; 100 uM (wells E8/9)): exhibited cell growth

Q: For Gymnopeptide A [GymA], which IC50 values [2] is on record?
A: Its IC50 values is “low nanomolar range”.

Q: For Gymnopeptide B [GymB], which IC50 values [2] is on record?
A: The IC50 values was “low nanomolar range”.

Q: With `O=C(O)Cc1ccccc1` [PAA] as the molecule, how does the “cell growth (OD600): bridging TIR1 to the bait, leading to degradation” value [3] read?
A: Its value is “functional bridging agents”.
